Drawing on patent publication US11155557B2, “Pyrazolopyrimidine compounds and methods of use thereof” (Genentech, Inc., priority 2016, dated 2021), this text covers Ki and IC50 for 25 compounds.

Read-outs that look alike come from different tables or passages of the source.

Assay [1] addresses isolated recombinant JAK1 kinase domain (Homo sapiens (Human), UniProt P23458). Briefly: JAK1 enzyme assay (Caliper LabChip, Ki). The format is biochemical. The procedure:
The activity of the isolated recombinant JAK1 and JAK2 kinase domain was measured by monitoring phosphorylation of a peptide derived from JAK3 ([…] fluorescently labeled on the N-terminus with 5-carboxyfluorescein) using the Caliper LabChip R technology (Caliper Life Sciences, Hopkinton, Mass.).

The test system of assay [2] is JAK1-dependent STAT6 phosphorylation in BEAS-2B human bronchial epithelial cells. Nature of the assay: JAK1 pathway assay: IL-13 stimulated STAT6 phosphorylation in BEAS-2B cells. To be noted: BEAS-2B cells, IL-13 stimulation, read-out: IL-13 p-STAT6 BEAS-2B IC50. Type of assay: cell-based. The essentials: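 BEAS-2B bronchial epithelial cells plated one day before, run in complete growth medium. Phospho-STAT6 in lysates measured by MesoScale Discovery; EC50 reported.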

In assay [3] the target is isolated recombinant JAK2 kinase domain (Homo sapiens (Human), UniProt O60674). Briefly: JAK2 enzyme assay (Caliper LabChip, Ki).
Chain of isolated recombinant JAK2 kinase domain (O60674 849-1124): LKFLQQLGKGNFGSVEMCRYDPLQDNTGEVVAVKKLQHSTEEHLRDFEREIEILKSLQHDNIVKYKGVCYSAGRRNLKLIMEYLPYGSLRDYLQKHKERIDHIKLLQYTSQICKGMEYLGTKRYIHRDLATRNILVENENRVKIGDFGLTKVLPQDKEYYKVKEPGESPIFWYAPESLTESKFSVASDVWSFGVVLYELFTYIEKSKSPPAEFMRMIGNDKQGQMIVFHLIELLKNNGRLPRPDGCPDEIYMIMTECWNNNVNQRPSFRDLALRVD

Chain of isolated recombinant JAK1 kinase domain (P23458 875-1153): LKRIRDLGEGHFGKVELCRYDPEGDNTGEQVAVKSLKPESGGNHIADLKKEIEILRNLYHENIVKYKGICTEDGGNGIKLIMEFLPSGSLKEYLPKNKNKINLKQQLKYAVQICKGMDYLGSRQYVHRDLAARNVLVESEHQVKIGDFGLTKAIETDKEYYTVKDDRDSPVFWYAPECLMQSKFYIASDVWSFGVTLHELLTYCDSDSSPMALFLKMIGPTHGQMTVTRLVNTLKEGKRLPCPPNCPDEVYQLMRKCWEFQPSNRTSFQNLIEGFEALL

Turning to `O=C(Nc1c[nH]nc1-c1cc2c(cc1OC(F)F)NCCS2)c1cnn2cccnc12` [Example 12, N-(3-(6-(difluoromethoxy)-3,4-dihydro-2H-benzo[b][1,4]thiazin-7-yl)-1H-pyrazol-4-yl)pyrazolo[1,5-a]pyrimidine-3-carboxamide], the Ki is 0.09 nM in assay [1] and 0.06 nM in assay [3] (read-out: JAK2 Ki). Besides, in assay [2] (Homo sapiens, BEAS-2B), the half-inhibitory concentration (IC50) worked out at 6 nM.

With `NCCn1cc(NC(=O)c2cnn3cccnc23)c(-c2cc3c(cc2OC(F)F)NCCS3)n1` [Example 13, N-(1-(2-aminoethyl)-3-(6-(difluoromethoxy)-3,4-dihydro-2H-benzo[b][1,4]thiazin-7-yl)-1H-pyrazol-4-yl)pyrazolo[1,5-a]pyrimidine-3-carboxamide], the Ki in assay [1] was 0.18 nM; in assay [3] (read-out: JAK2 Ki), 0.13 nM. In assay [2] (Homo sapiens, BEAS-2B), the IC50 was found to be 20 nM.

Take `O=C1CSc2cc(-c3n[nH]cc3NC(=O)c3cnn4cccnc34)c(OC(F)F)cc2N1` [Example 14, N-[3-[6-(difluoromethoxy)-3-oxo-3,4-dihydro-2H-1,4-benzothiazin-7-yl]-1H-pyrazol-4-yl]pyrazolo[1,5-a]pyrimidine-3-carboxamide]: the Ki was found to be 0.05 nM in assay [1] and 0.04 nM in assay [3] (read-out: JAK2 Ki). Moreover, the concentration for half-maximal inhibition (IC50) in assay [2] (Homo sapiens, BEAS-2B) was found to be 27 nM.

In the case of `O=C(Nc1c[nH]nc1-c1cc2c(cc1OC(F)F)CCO2)c1cnn2cccnc12` [Example 16, N-(3-(5-(difluoromethoxy)-2,3-dihydrobenzofuran-6-yl)-1H-pyrazol-4-yl)pyrazolo[1,5-a]pyrimidine-3-carboxamide], the inhibitory constant (Ki) amounted to 0.21 nM in assay [1] and 0.09 nM in assay [3] (read-out: JAK2 Ki). In addition, the half-inhibitory concentration (IC50) in assay [2] (Homo sapiens, BEAS-2B) came out at 5 nM.

As to `O=C(Nc1c[nH]nc1-c1cc2c(cc1OC(F)F)CCCO2)c1cnn2cccnc12` [Example 17, N-[3-[6-(difluoromethoxy)-3,4-dihydro-2H-1-benzopyran-7-yl]-H-pyrazol-4-yl]pyrazolo[1,5-a]pyrimidine-3-carboxamide], the Ki came out at 0.32 nM in assay [1] and 0.14 nM in assay [3] (read-out: JAK2 Ki). The IC50 in assay [2] (Homo sapiens, BEAS-2B) is 14 nM.

Turning to `COC(=O)Cn1cc(NC(=O)c2cnn3cccnc23)c(-c2cc3sc(C#N)cc3cc2OC(F)F)n1` [Example 19, Methyl 2-(3-(2-cyano-5-(difluoromethoxy)benzo[b]thiophen-6-yl)-4-(pyrazolo[1,5-a]pyrimidine-3-carboxamido)-1H-pyrazol-1-yl)acetate], the inhibitory constant (Ki) in assay [1] amounted to 0.3 nM; in assay [3] (read-out: JAK2 Ki), 0.33 nM. In assay [2] (Homo sapiens, BEAS-2B), the IC50 was determined as 21 nM.

For `Cn1cc(NC(=O)c2cnn3cccnc23)c(-c2cc3sc(C(=O)N4CCN(C(=O)OC(C)(C)C)CC4)cc3cc2OC(F)F)n1` [Example 20, tert-Butyl 4-(5-(difluoromethoxy)-6-(1-methyl-4-(pyrazolo[1,5-a]pyrimidine-3-carboxamido)-1H-pyrazol-3-yl)benzo[b]thiophene-2-carbonyl)piperazine-1-carboxylate], the Ki in assay [1] is 5.57 nM; in assay [3] (read-out: JAK2 Ki), 4.48 nM. Moreover, in assay [2] (Homo sapiens, BEAS-2B), the concentration for half-maximal inhibition (IC50) was found to be 186 nM.

With `O=C(Nc1c[nH]nc1-c1cc2cn[nH]c2cc1OC(F)F)c1cnn2cccnc12` [Example 21, N-(3-(6-(difluoromethoxy)-1H-indazol-5-yl)-1H-pyrazol-4-yl)pyrazolo[1,5-a]pyrimidine-3-carboxamide], the Ki came to 0.07 nM in assay [1] and 0.05 nM in assay [3]. In assay [2] (Homo sapiens, BEAS-2B), the IC50 is 37 nM.

As to `COc1cc2cc(C)sc2cc1-c1n[nH]cc1NC(=O)c1cnn2cccnc12` [Example 22, N-(3-(5-methoxy-2-methylbenzo[b]thiophen-6-yl)-1H-pyrazol-4-yl)pyrazolo[1,5-a]pyrimidine-3-carboxamide], the values for the Ki in assay [1] and in assay [3] (read-out: JAK2 Ki) were 0.19 nM and 0.12 nM, respectively. The IC50 in assay [2] (Homo sapiens, BEAS-2B) worked out at 6 nM.

For the compound `COc1cc2sc(C#N)cc2cc1-c1n[nH]cc1NC(=O)c1cnn2cccnc12` [Example 24, N-(3-(2-cyano-6-methoxybenzo[b]thiophen-5-yl)-H-pyrazol-4-yl)pyrazolo[1,5-a]pyrimidine-3-carboxamide], the inhibition constant Ki in assay [1] is 0.41 nM; in assay [3] (read-out: JAK2 Ki), 0.27 nM. In assay [2] (Homo sapiens, BEAS-2B), the IC50 came to 14 nM.

Consider `Cc1cc2cc(OC(F)F)c(-c3n[nH]cc3NC(=O)c3cnn4cccnc34)cc2s1` [Example 25, N-(3-(5-(difluoromethoxy)-2-methylbenzo[b]thiophen-6-yl)-1H-pyrazol-4-yl)pyrazolo[1,5-a]pyrimidine-3-carboxamide], for which the Ki in assay [1] was 0.11 nM; in assay [3] (read-out: JAK2 Ki), 0.06 nM. Besides, the half-maximal inhibitory concentration (IC50) in assay [2] (Homo sapiens, BEAS-2B) amounted to 5 nM.

As for `O=C(Nc1c[nH]nc1-c1cc2c(cc1OC(F)F)CCC2)c1cnn2cccnc12` [Example 26, N-[3-[6-(difluoromethoxy)indan-5-yl]-1H-pyrazol-4-yl]pyrazolo[1,5-a]pyrimidine-3-carboxamide], the values for the Ki in assay [1] and in assay [3] (read-out: JAK2 Ki) were 0.19 nM and 0.08 nM, respectively. The IC50 in assay [2] (Homo sapiens, BEAS-2B) was 8 nM.

`COc1cc2c(cc1-c1n[nH]cc1NC(=O)c1cnn3cccnc13)CCC2` [Example 27, N-[3-(6-methoxyindan-5-yl)-1H-pyrazol-4-yl]pyrazolo[1,5-a]pyrimidine-3-carboxamide]: the inhibitory constant (Ki) is 0.89 nM in assay [1] and 0.34 nM in assay [3] (read-out: JAK2 Ki). Further, the IC50 in assay [2] (Homo sapiens, BEAS-2B) is 6 nM.

For `COc1cc2cnccc2cc1-c1n[nH]cc1NC(=O)c1cnn2cccnc12` [Example 29, N-[3-(7-methoxy-6-isoquinolyl)-1H-pyrazol-4-yl]pyrazolo[1,5-a]pyrimidine-3-carboxamide], the Ki in assay [1] came to 0.84 nM; in assay [3] (read-out: JAK2 Ki), 0.49 nM. Further, the IC50 in assay [2] (Homo sapiens, BEAS-2B) came out at 85 nM.

With `COc1cc2[nH]ncc2cc1-c1n[nH]cc1NC(=O)c1cnn2cccnc12` [Example 30, N-[3-(6-methoxy-1H-indazol-5-yl)-1H-pyrazol-4-yl]pyrazolo[1,5-a]pyrimidine-3-carboxamide], the inhibitory constant (Ki) in assay [1] is 0.3 nM; in assay [3] (read-out: JAK2 Ki), 0.2 nM. In assay [2], the IC50 amounted to 369 nM.

As to `COc1cc2[nH]cnc2cc1-c1n[nH]cc1NC(=O)c1cnn2cccnc12` [Example 31, N-[3-(6-methoxy-1H-benzimidazol-5-yl)-1H-pyrazol-4-yl]pyrazolo[1,5-a]pyrimidine-3-carboxamide], the Ki in assay [1] came out at 2.09 nM; in assay [3] (read-out: JAK2 Ki), 0.9 nM. The concentration for half-maximal inhibition (IC50) in assay [2] (Homo sapiens, BEAS-2B) worked out at 6910 nM.

As for `COc1cc2cnsc2cc1-c1n[nH]cc1NC(=O)c1cnn2cccnc12` [Example 32, N-[3-(5-methoxy-1,2-benzothiazol-6-yl)-1H-pyrazol-4-yl]pyrazolo[1,5-a]pyrimidine-3-carboxamide], the results for the inhibition constant Ki in assay [1] and in assay [3] (read-out: JAK2 Ki) were 0.16 nM and 0.11 nM, respectively. In assay [2] (Homo sapiens, BEAS-2B), the half-inhibitory concentration (IC50) was 2 nM.

Regarding `COc1cc2sncc2cc1-c1n[nH]cc1NC(=O)c1cnn2cccnc12` [Example 33, N-[3-(6-methoxy-1,2-benzothiazol-5-yl)-1H-pyrazol-4-yl]pyrazolo[1,5-a]pyrimidine-3-carboxamide], the figures for the Ki in assay [1] and in assay [3] (read-out: JAK2 Ki) were 0.91 nM and 0.4 nM, respectively. For the same compound, in assay [2] (Homo sapiens, BEAS-2B), the IC50 is 21 nM.

As for `COc1cc2sccc2cc1-c1[nH]ncc1NC(=O)c1cnn2cccnc12` [Example 34, N-[5-(6-methoxybenzothiophen-5-yl)-1H-pyrazol-4-yl]pyrazolo[1,5-a]pyrimidine-3-carboxamide], the Ki amounted to 0.6 nM in assay [1] and 0.19 nM in assay [3] (read-out: JAK2 Ki). Also, in assay [2] (Homo sapiens, BEAS-2B), the IC50 is 10 nM.

As to `COc1cc2ccsc2cc1-c1n[nH]cc1NC(=O)c1cnn2cccnc12` [Example 35, N-[3-(5-methoxybenzothiophen-6-yl)-1H-pyrazol-4-yl]pyrazolo[1,5-a]pyrimidine-3-carboxamide], the inhibition constant (Ki) in assay [1] was found to be 0.28 nM; in assay [3] (read-out: JAK2 Ki), 0.11 nM. Further, in assay [2] (Homo sapiens, BEAS-2B), the half-inhibitory concentration (IC50) worked out at 3 nM.

Turning to `CCOC(=O)c1cc2cc(-c3n[nH]cc3NC(=O)c3cnn4cccnc34)c(OC)cc2s1` [Example 36, ethyl 6-methoxy-5-[4-(pyrazolo[1,5-a]pyrimidine-3-carbonylamino)-1H-pyrazol-3-yl]benzothiophene-2-carboxylate], the results for the Ki in assay [1] and in assay [3] (read-out: JAK2 Ki) were 0.65 nM and 0.49 nM, respectively. Besides, the IC50 in assay [2] (Homo sapiens, BEAS-2B) worked out at 32 nM.

Regarding `CC1CNc2cc(OC(F)F)c(-c3n[nH]cc3NC(=O)c3cnn4cccnc34)cc2S1` (stereo not drawn) [Example 37, N-[3-[6-(difluoromethoxy)-2-methyl-3,4-dihydro-2H-1,4-benzothiazin-7-yl]-1H-pyrazol-4-yl]pyrazolo[1,5-a]pyrimidine-3-carboxamide], the inhibition constant (Ki) turned out to be 0.07 nM in assay [1] and 0.05 nM in assay [3] (read-out: JAK2 Ki). For the same compound, in assay [2] (Homo sapiens, BEAS-2B), the half-maximal inhibitory concentration (IC50) was 5 nM.

On to `CC1Sc2cc(-c3n[nH]cc3NC(=O)c3cnn4cccnc34)c(OC(F)F)cc2NC1=O` (stereo not drawn) [Example 39, N-[3-[6-(difluoromethoxy)-2-methyl-3-oxo-4H-1,4-benzothiazin-7-yl]-1H-pyrazol-4-yl]pyrazolo[1,5-a]pyrimidine-3-carboxamide], for which the inhibition constant (Ki) in assay [1] was 0.06 nM; in assay [3] (read-out: JAK2 Ki), 0.05 nM. The IC50 in assay [2] (Homo sapiens, BEAS-2B) came out at 71 nM.

With `O=C1COc2cc(-c3n[nH]cc3NC(=O)c3cnn4cccnc34)c(OC(F)F)cc2N1` [Example 40, N-[3-[6-(difluoromethoxy)-3-oxo-4H-1,4-benzoxazin-7-yl]-1H-pyrazol-4-yl]pyrazolo[1,5-a]pyrimidine-3-carboxamide], the Ki in assay [1] worked out at 0.09 nM; in assay [3] (read-out: JAK2 Ki), 0.06 nM. Besides, the half-inhibitory concentration (IC50) in assay [2] (Homo sapiens, BEAS-2B) was 67 nM.

Regarding `C[C@H]1COc2cc(-c3n[nH]cc3NC(=O)c3cnn4cccnc34)c(OC(F)F)cc2N1` [Example 42, N-[3-[(3S)-6-(difluoromethoxy)-3-methyl-3,4-dihydro-2H-1,4-benzoxazin-7-yl]-1H-pyrazol-4-yl]pyrazolo[1,5-a]pyrimidine-3-carboxamide], the Ki in assay [1] is 0.44 nM; in assay [3] (read-out: JAK2 Ki) it was 0.25 nM. Besides, in assay [2] (Homo sapiens, BEAS-2B), the half-inhibitory concentration (IC50) was 34 nM.
